The values that follow come from patent US12122785B2, “Substituted pyridines, pyridazines, pyrimidines, and 1,2,4-triazines as TYK2 inhibitors” (Sudo Biosciences Limited, priority 2021, dated 2024).

As usually defined, the IC50 is the concentration that inhibits the measured activity by half.

In test [1] the test system is IFNγ-stimulated HEK-Blue IFNγ reporter cells. Kind of test: HEK-Blue IFNγ reporter assay (STAT1-inducible SEAP) for determining selectivity. The format is cell-based. The conditions noted are these: 50 ng/mL human recombinant IFNγ, 24 hours, read-out: IFN-γ SEAP selectivity assay IC50. A digest of the protocol:
(§1)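 Cells were plated for 20-22 h, then pretreated with serially diluted compound for 60 min. They were stimulated for 24 h with 4 ng/mL human recombinant IL-2 or 50 ng/mL human recombinant IFNγ, and SEAP induction was read with QUANTI-Blue.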
(In general: A reporter such as luciferase makes a cellular process visible.)

For test [2], the system named is TYK2 pseudokinase (JH2); IFNα-stimulated HEK-Blue IFNα/β cells. Kind of test: HEK-Blue IFNα/β reporter assay (STAT1-inducible SEAP) for profiling TYK2 pseudokinase (JH2) inhibition. To be noted: 1 ng/mL human recombinant IFNα, SEAP readout, read-out: IFNα (TYK2 inhibitory activity, IC50). The class given is cell-based. Summed up:
(§2)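 STAT-driven SEAP expression is measured with QUANTI-Blue. Cells receive test compound in serial dilution 60 min ahead of 10 ng/mL IL-23 (22-24 h) or 1 ng/mL IFNα (16-18 h).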

The next test has as its target T1, JAK3 kinase domain (JH1) (Homo sapiens, UniProt P52333).
T1 construct: recombinant purified His or GST-tagged catalytic domain for each enzyme; purchased Carna biosciences 08-046
Kind of test: HTRF-based selectivity assay, JAK3 catalytic domain. The class given is biochemical. To be noted: 2.12 μM ATP. The method, then: (§3) Example B-2: HTRF-Based Selectivity Assay
(§4) The ability of compounds to inhibit the activity of JAK1, JAK2, JAK3 and TYK2 is measured using a recombinant purified His or GST-tagged catalytic domain for each enzyme (JAK1, JAK2 and TYK2 are generated in-house; JAK3 was purchased from Carna biosciences, Cat #08-046) in an HTRF format biochemical assay. The reactions employs a commercial peptide substrate from Cisbio (Cat #62TK0PEC). The basic assay protocol is as follows: first, 2.5 μL of diluted compounds (4×) in DMSO are dispensed into a 384-well Optiplate. Next, 2.5 μL of enzyme (final concentrations for enzymes are: TYK2—700 ng/mL, JAK1—80.6 ng/mL, JAK2—2.1 ng/mL and JAK3—171.8 ng/mL) is added and incubated at RT for 5-20 min. Finally, 5 μl of mixture of 2×ATP [Final concentration 20 μM for TYK2, 21.43 μM for JAK1, 14.7 μM for JAK2 and 2.12 μM for JAK3]+2× Substrate [Final concentration 217 nM for TYK2, 454.7 nM for JAK1, 200 nM for JAK2 and 257.4 nM for JAK3] is added to 384 well Optiplate. Composition of Kinase assay buffer used in the assay is as follows: HEPES 50 mM, EGTA 1 mM, MgCl2 10 mM, DTT 2 mM, Tween-20 0.01% and water. Then the plates are shaken and then incubated at 26.5° C. for 60 min.
For orientation: In TR-FRET formats the signal depends on donor and acceptor labels being close together.

For the next test, the target named is T2, TYK2 kinase domain (JH1) (Homo sapiens, UniProt P29597).
T2 construct: recombinant purified His or GST-tagged catalytic domain for each enzyme; made in house
T2 sequence (P29597 897-1176 limits assumed): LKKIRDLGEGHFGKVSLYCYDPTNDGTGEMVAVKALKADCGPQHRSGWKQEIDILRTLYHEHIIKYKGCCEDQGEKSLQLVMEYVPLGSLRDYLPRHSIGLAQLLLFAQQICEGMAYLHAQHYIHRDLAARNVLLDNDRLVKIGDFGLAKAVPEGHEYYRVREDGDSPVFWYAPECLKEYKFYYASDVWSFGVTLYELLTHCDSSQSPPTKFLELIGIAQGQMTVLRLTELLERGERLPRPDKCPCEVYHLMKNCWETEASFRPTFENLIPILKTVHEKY
Kind of test: HTRF-based selectivity assay, TYK2 catalytic domain. The format is biochemical. To be noted: 20 μM ATP. How it is done: as §3, §4

Another test deals with T3, JAK2 kinase domain (JH1) (Homo sapiens, UniProt O60674).
T3 construct: recombinant purified His or GST-tagged catalytic domain for each enzyme; made in house
Kind of test: HTRF-based selectivity assay, JAK2 catalytic domain. To be noted: 14.7 μM ATP. The format is biochemical. How it is done: as §3, §4

The test system of test [3] is IL-2-stimulated HEK-Blue IL-2 reporter cells. Kind of test: HEK-Blue IL-2 reporter assay (STAT5-inducible SEAP) for determining selectivity. The class given is cell-based. To be noted: 4 ng/mL human recombinant IL-2, 24 hours. A digest of the protocol:
as §1

The subject of test [4] is TYK2 pseudokinase (JH2); IL-23-stimulated HEK-Blue IL-23 cells. Kind of test: HEK-Blue IL-23 reporter assay (STAT3-inducible SEAP) for profiling TYK2 pseudokinase (JH2) inhibition. The class given is cell-based. To be noted: 10 ng/mL human recombinant IL-23, SEAP readout, read-out: IL23 (TYK2 inhibitory activity, IC50). A digest of the protocol:
as §2

A further test deals with T4, JAK1 kinase domain (JH1) (Homo sapiens, UniProt P23458).
T4 construct: recombinant purified His or GST-tagged catalytic domain for each enzyme; made in house
Kind of test: HTRF-based selectivity assay, JAK1 catalytic domain. The class given is biochemical. The conditions noted are these: 21.43 μM ATP, read-out: JAK-JHI (IC50). The method, then: as §3, §4

T4 sequence (P23458 875-1153 limits assumed): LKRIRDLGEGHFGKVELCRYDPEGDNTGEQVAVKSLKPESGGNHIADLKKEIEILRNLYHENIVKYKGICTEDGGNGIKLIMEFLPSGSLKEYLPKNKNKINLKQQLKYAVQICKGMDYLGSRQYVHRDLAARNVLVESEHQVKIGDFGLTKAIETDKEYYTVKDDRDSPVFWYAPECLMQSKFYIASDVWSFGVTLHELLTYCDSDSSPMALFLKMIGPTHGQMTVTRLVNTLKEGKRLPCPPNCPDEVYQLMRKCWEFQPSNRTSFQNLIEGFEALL
T3 sequence (O60674 849-1124 limits assumed): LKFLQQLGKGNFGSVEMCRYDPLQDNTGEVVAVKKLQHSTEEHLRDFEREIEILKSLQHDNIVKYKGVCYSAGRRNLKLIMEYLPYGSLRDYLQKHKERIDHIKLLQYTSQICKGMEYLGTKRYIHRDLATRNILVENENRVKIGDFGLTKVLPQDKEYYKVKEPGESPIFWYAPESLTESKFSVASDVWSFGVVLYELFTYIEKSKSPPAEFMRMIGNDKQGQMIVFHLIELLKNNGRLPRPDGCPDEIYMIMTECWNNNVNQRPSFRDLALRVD
T1 sequence (P52333 822-1111 limits assumed): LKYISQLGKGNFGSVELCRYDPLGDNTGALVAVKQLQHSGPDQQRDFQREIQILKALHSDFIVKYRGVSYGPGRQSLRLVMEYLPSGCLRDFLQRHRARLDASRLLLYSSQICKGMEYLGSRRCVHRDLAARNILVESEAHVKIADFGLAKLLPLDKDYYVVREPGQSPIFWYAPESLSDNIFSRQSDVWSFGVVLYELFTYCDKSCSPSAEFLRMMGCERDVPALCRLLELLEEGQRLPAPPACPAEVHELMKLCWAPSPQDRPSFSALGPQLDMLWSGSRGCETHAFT

With `[2H]C([2H])([2H])NC(=O)c1cnc(Nc2ccc(F)cn2)cc1Nc1cccc2c1N(C)Cc1cn(C)nc1-2` [Compound 13, 4-((2,5-dimethyl-4,5-dihydro-2H-pyrazolo[4,3-c]quinolin-6-yl)amino)-6-((5-fluoropyridin-2-yl)amino)-N-(methyl-d3)nicotinamide], the IC50 is 300 to 1000 nM in test [1]; < 30 nM in test [2]; > 1000 nM at JAK3 kinase domain (JH1); > 1000 nM against TYK2 kinase domain (JH1); > 1000 nM against JAK2 kinase domain (JH1); > 1000 nM in test [3]. Further, the IC50 in test [4] is < 30 nM; on JAK1 kinase domain (JH1), > 1000 nM.
As for `[2H]C([2H])([2H])NC(=O)c1nnc(NC(=O)C2CC2)cc1Nc1nccc2c1N(C)Cc1cn(C)nc1-2` [Compound 65, 6-(cyclopropanecarboxamido)-4-((2,5-dimethyl-4,5-dihydro-2H-pyrazolo[4,3-c][1,7]naphthyridin-6-yl)amino)-N-(methyl-d3)pyridazine-3-carboxamide], the IC50 in test [1] is 30 to 300 nM; in test [2] it was < 30 nM; at JAK3 kinase domain (JH1) it was > 1000 nM; at TYK2 kinase domain (JH1), > 1000 nM; on JAK2 kinase domain (JH1), > 1000 nM; in test [3], > 1000 nM. Further, the IC50 was < 30 nM in test [4] and > 1000 nM at JAK1 kinase domain (JH1).
On to `CNC(=O)c1nnc(NC(=O)C2CC2)cc1Nc1cccc2c1OCc1cnn(C)c1-2` [Compound 50, 6-(cyclopropanecarboxamido)-N-methyl-4-((1-methyl-1,4-dihydrochromeno[4,3-c]pyrazol-6-yl)amino)pyridazine-3-carboxamide], for which the IC50 is 300 to 1000 nM in test [1]; 300 to 1000 nM in test [2]; > 1000 nM on JAK3 kinase domain (JH1); > 1000 nM on TYK2 kinase domain (JH1); > 1000 nM against JAK2 kinase domain (JH1); 30 to 300 nM in test [3]. For the same compound, the IC50 in test [4] was 300 to 1000 nM; at JAK1 kinase domain (JH1), > 1000 nM.
For `[2H]C([2H])([2H])NC(=O)c1cnc(NC(=O)C2CC2)cc1Nc1nccc2c1N(C([2H])([2H])[2H])Cc1cn(C)nc1-2` [Compound 66, 6-(cyclopropanecarboxamido)-N-(methyl-d3)-4-((2-methyl-5-(methyl-d3)-4,5-dihydro-2H-pyrazolo[4,3-c][1,7]naphthyridin-6-yl)amino)nicotinamide], the IC50 was 300 to 1000 nM in test [1]; < 30 nM in test [2]; > 1000 nM at JAK3 kinase domain (JH1); > 1000 nM on TYK2 kinase domain (JH1); > 1000 nM against JAK2 kinase domain (JH1); > 1000 nM in test [3]. The half-maximal inhibitory concentration (IC50) in test [4] was < 30 nM; at JAK1 kinase domain (JH1), > 1000 nM.
Regarding `[2H]C([2H])([2H])NC(=O)c1cnc(NC(=O)C2CC2)nc1Nc1cccc2c1N(C)Cc1cn(C)nc1-2` [Compound 22, 2-(cyclopropanecarboxamido)-4-((2,5-dimethyl-4,5-dihydro-2H-pyrazolo[4,3-c]quinolin-6-yl)amino)-N-(methyl-d3)pyrimidine-5-carboxamide], the IC50 in test [1] is > 1000 nM; in test [2], < 30 nM; at JAK3 kinase domain (JH1), > 1000 nM; against TYK2 kinase domain (JH1), > 1000 nM; at JAK2 kinase domain (JH1), > 1000 nM; in test [3], > 1000 nM. In addition, the IC50 in test [4] is < 30 nM; on JAK1 kinase domain (JH1), > 1000 nM.
For `[2H]C([2H])([2H])NC(=O)c1cnc(NC(=O)C2CC2)cc1Nc1cccc2c1N(C)Cc1cn(C)nc1-2` [Compound 14, 6-(cyclopropanecarboxamido)-4-((2,5-dimethyl-4,5-dihydro-2H-pyrazolo[4,3-c]quinolin-6-yl)amino)-N-(methyl-d3)nicotinamide], the IC50 in test [1] is 300 to 1000 nM; in test [2], < 30 nM; at JAK3 kinase domain (JH1), > 1000 nM; against TYK2 kinase domain (JH1), > 1000 nM; on JAK2 kinase domain (JH1), > 1000 nM; in test [3], > 1000 nM. Further, the half-inhibitory concentration (IC50) in test [4] was < 30 nM; at JAK1 kinase domain (JH1) it was > 1000 nM.
With `[2H]C([2H])([2H])NC(=O)c1cnc(N2CCN(C(C)C)C2=O)cc1Nc1cccc2c1N(C)Cc1cn(C)nc1-2` [Compound 61, 4-((2,5-dimethyl-4,5-dihydro-2H-pyrazolo[4,3-c]quinolin-6-yl)amino)-6-(3-isopropyl-2-oxoimidazolidin-1-yl)-N-(methyl-d3)nicotinamide], the IC50 in test [1] was > 1000 nM; in test [2], 30 to 300 nM; on JAK3 kinase domain (JH1) it was > 1000 nM; at TYK2 kinase domain (JH1), > 1000 nM; on JAK2 kinase domain (JH1), > 1000 nM; in test [3], > 1000 nM. For the same compound, the IC50 in test [4] is < 30 nM; on JAK1 kinase domain (JH1) it was > 1000 nM.
In the case of `[2H]C([2H])([2H])NC(=O)c1nnc(NC(=O)C2CC2)cc1Nc1cccc2c1N(C)Cc1cn(C([2H])([2H])[2H])nc1-2` [Compound 20, 6-(cyclopropanecarboxamido)-N-(methyl-d3)-4-((5-methyl-2-(methyl-d3)-4,5-dihydro-2H-pyrazolo[4,3-c]quinolin-6-yl)amino)pyridazine-3-carboxamide], the IC50 in test [1] is 30 to 300 nM; in test [2], < 30 nM; on JAK3 kinase domain (JH1), > 1000 nM; against TYK2 kinase domain (JH1), > 1000 nM; against JAK2 kinase domain (JH1), > 1000 nM; in test [3] it was 300 to 1000 nM. Moreover, the results for the IC50 (in test [4]; at JAK1 kinase domain (JH1)) were < 30 nM and > 1000 nM, respectively.
On to `[2H]C([2H])([2H])NC(=O)c1nnc(NC(=O)C2CC2)cc1Nc1nccc2c1N(C)[C@H](C)c1cn(C)nc1-2` (single isomer, unassigned) [Compound 70], for which the IC50 in test [2] is < 30 nM; against JAK3 kinase domain (JH1), 300 to 1000 nM; on TYK2 kinase domain (JH1), > 1000 nM; against JAK2 kinase domain (JH1) it was 30 to 300 nM; in test [3], > 1000 nM; in test [4] it was < 30 nM. The half-inhibitory concentration (IC50) at JAK1 kinase domain (JH1) was > 1000 nM.
`[2H]C([2H])([2H])NC(=O)c1cnc(NC(=O)[C@H]2C[C@H]2F)cc1Nc1cccc2c1N(C)Cc1cn(C)nc1-2` (single isomer, unassigned) [Compound 32]: the IC50 in test [2] was < 30 nM; at JAK3 kinase domain (JH1), > 1000 nM; against TYK2 kinase domain (JH1), > 1000 nM; on JAK2 kinase domain (JH1), > 1000 nM; in test [3], > 1000 nM; in test [4], < 30 nM. For the same compound, the IC50 at JAK1 kinase domain (JH1) was > 1000 nM.
For the compound `[2H]C([2H])([2H])NC(=O)c1nnc(NC(=O)C2CC2)cc1Nc1nccc2c1N(C)Cc1cc(C)nn1-2` [Compound 68, 6-(cyclopropanecarboxamido)-4-((2,5-dimethyl-4,5-dihydropyrazolo[1,5-a]pyrido[3,4-e]pyrazin-6-yl)amino)-N-(methyl-d3)pyridazine-3-carboxamide], the IC50 is < 30 nM in test [2]; > 1000 nM on JAK3 kinase domain (JH1); > 1000 nM at TYK2 kinase domain (JH1); > 1000 nM at JAK2 kinase domain (JH1); > 1000 nM in test [3]; < 30 nM in test [4]. The half-inhibitory concentration (IC50) at JAK1 kinase domain (JH1) is > 1000 nM.
Consider `[2H]C([2H])([2H])NC(=O)c1cnc(NC(=O)C2CC2)cc1Nc1cccc2c1N(C)C([2H])([2H])c1cn(C)nc1-2` [Compound 35, 6-(cyclopropanecarboxamido)-4-((2,5-dimethyl-4,5-dihydro-2H-pyrazolo[4,3-c]quinolin-6-yl-4,4-d2)amino)-N-(methyl-d3)nicotinamide], for which the IC50 in test [2] was < 30 nM; on JAK3 kinase domain (JH1), > 1000 nM; against TYK2 kinase domain (JH1) it was > 1000 nM; against JAK2 kinase domain (JH1), > 1000 nM; in test [3], > 1000 nM; in test [4] it was < 30 nM. The IC50 on JAK1 kinase domain (JH1) is > 1000 nM.
